Experiments:
GFP = test: EC50 of nanoparticle formulations, GFP siRNA; format: cell-based; conditions: nanoparticles Ionizable compound/DOPE/Cholesterol/DMPE-PEG 50/28/21/1 mol %
Method: (§1) Example 39: Formulations were Prepared for Encapsulating a Small Interfering Nucleic Acid Agents (siRNA)
(§2) Lipid nanoparticle formulations were prepared with the following compositions: […]
(§3) (Ionizable compound/DOPE/Cholesterol/DMPE-PEG) mol % • 50/28/21/1.
The formulations were capable of encapsulating the siRNA, and retaining stability in human serum.

[1] = Serum stability of nanoparticle formulations, t(½) in human serum at 37 C; format: in vitro ADME; conditions: Table 10, nanoparticles Ionizable compound/DOPE/Cholesterol/DMPE-PEG 50/28/21/1 mol %
Method: as §1, §2, §3
The formulations were capable of encapsulating the siRNA, and retaining stability in human serum. […]

[2] = pKa (Table 9, lipid formulations for siRNA); format: physicochemical; conditions: only or first value of the cell
[3] = Encapsulation efficiency for siRNA of lipid (nanoparticle) formulations; format: physicochemical; conditions: Table 8: nanoparticles Ionizable compound/DOPE/DOPC/Cholesterol/DMPE-PEG 50/28/0/21/1, 50/28/0/20/2 or 26/21/21/31/1 mol %
Method: (§4) Example 38: Formulations were Prepared for Encapsulating a Small Interfering Nucleic Acid Agents (siRNA)
as §2

[4] = Particle size Z (ave) of siRNA lipid nanoparticle formulations; format: physicochemical; conditions: Table 8: nanoparticles Ionizable compound/DOPE/DOPC/Cholesterol/DMPE-PEG 50/28/0/21/1, 50/28/0/20/2 or 26/21/21/31/1 mol %
Method: as §4, §2

Compound	EC50 (GFP) [nM]	t(½) (hr) human serum 37 C. [1] [h]	pKa [2]	EE* (%) Encapsulation efficiency for siRNA [3] [%]	Z (ave) nm [4] [nm]
CCCCC/C=C\C/C=C\CCCCCCCC(=O)OCCN(CCOC(=O)CCCCCCC/C=C\C/C=C\CCCCC)C(=O)CN1C[C@@H](O)[C@H](O)C1 [Compound A5, ((2-((3R,4R)-3,4-dihydroxypyrrolidin-1-yl)acetyl)azanediyl)bis(ethane-2,1-diyl) (9Z,9′Z,12Z,12′Z)-bis(octadeca-9,12-dienoate)]	6.9	>50	6.1	–	–
CCCCC/C=C\C/C=C\CCCCCCCCOC(=O)[C@H](CNC(=O)C[N+](C)(C)C)NC(=O)CCCCCCC/C=C\C/C=C\CCCCC [Compound C24, N,N,N-trimethyl-2-(((S)-3-(((9Z,12Z)-octadeca-9,12-dien-1-yl)oxy)-2-((9Z,12Z)-octadeca-9,12-dienamido)-3-oxopropyl)amino)-2-oxoethan-1l-aminium]	92	>50	–	98	127
CCCCC/C=C\C/C=C\CCCCCCCC(=O)OCCN(CCOC(=O)CCCCCCC/C=C\C/C=C\CCCCC)C(=O)CN1C[C@@H](O)[C@@H](O)C1 [Compound A6, ((2-((3S,4R)-3,4-dihydroxypyrrolidin-1-yl)acetyl)azanediyl)bis(ethane-2,1-diyl) (9Z,9′Z,12Z,12′Z)-bis(octadeca-9,12-dienoate)]	11	>50	6.3	96	121
CCCCC/C=C\C/C=C\CCCCCCCCOC(=O)CC(CC(=O)OCCCCCCCC/C=C\C/C=C\CCCCC)NC(=O)CN1CCN(CCO)CC1 [Compound CA, di((9Z,12Z)-octadeca-9,12-dien-1-yl) 3-(2-(4-(2-hydroxyethyl)piperazin-1-yl)acetamido)pentanedioate]	< 50	–	–	–	–
CCCCCCCCCCCCCC(=O)OCCN(CCOC(=O)CCCCCCCCCCCCC)C(=O)CN1C[C@H](O)[C@@H](O)C1 [Compound A4, ((2-((3S,4S)-3,4-dihydroxypyrrolidin-1-yl)acetyl)azanediyl)bis(ethane-2,1-diyl) ditetradecanoate]	–	–	5.8	–	–
CCCC/C=C\C/C=C\CCCCCCCCOC(=O)CC(CC(=O)OCCCCCCCC/C=C\C/C=C\CCCCC)NC(=O)CN(C)C (centres unmarked) [Compound C3, 1-((9Z,12Z)-heptadeca-9,12-dien-1-yl) 5-((9Z,12Z)-octadeca-9,12-dien-1-yl) 3-(2-(dimethylamino)acetamido)pentanedioate]	–	–	6.9	–	–
CCCCC/C=C\C/C=C\CCCCCCCC(=O)OCCN(CCOC(=O)CCCCCCC/C=C\C/C=C\CCCCC)C(=O)OCC[N+](C)(C)C [Compound A8, 2-((bis(2-(((9Z,12Z)-octadeca-9,12-dienoyl)oxy)ethyl)carbamoyl)oxy)-N,N,N-trimethylethan-1-aminium]	–	>50	–	–	–
CCCCC/C=C\C/C=C\CCCCCCCC(=O)OCCN(CCCN(C)C)C(=O)CCCCCCC/C=C\C/C=C\CCCCC [Compound F5, 2-((9Z,12Z)—N-(3-(dimethylamino)propyl)octadeca-9,12-dienamido)ethyl (9Z,12Z)-octadeca-9,12-dienoate]	33	–	9.4	–	–
CCCCC/C=C\C/C=C\CCCCCCCCOC(=O)CC(CC(=O)OCCCCCCCC/C=C\C/C=C\CCCCC)NC(=O)OCCN(C)C [Compound E4, di((9Z,12Z)-octadeca-9,12-dien-1-yl) 3-(((2-(dimethylamino)ethoxy)carbonyl)amino)pentanedioate]	2.7	>50	–	94	131
CCCCC/C=C\C/C=C\CCCCCCCCOC(=O)CC(CC(=O)OCCCCCCCC/C=C\C/C=C\CCCCC)NC(=O)SCCN(C)C [Compound DD, di((9Z,12Z)-octadeca-9,12-dien-1-yl) 3-((((2-(dimethylamino)ethyl)thio)carbonyl)amino)pentanedioate]	–	>50	5.1	92	137
CCCCC/C=C\C/C=C\CCCCCCCC(=O)OCCN(CCOC(=O)CCCCCCC/C=C\C/C=C\CCCCC)C(=O)OCCN(C)C [Compound A7, (((2-(dimethylamino)ethoxy)carbonyl)azanediyl)bis(ethane-2,1-diyl) (9Z,9′Z,12Z,12′Z)-bis(octadeca-9,12-dienoate)]	35	>50	7.6	–	–
CCCCC/C=C\C/C=C\CCCCCCCCOC(=O)[C@@H]1C[C@@H](NC(=O)CCCN(C)C)CN1C(=O)CCCCCCC/C=C\C/C=C\CCCCC [Compound E38, (9Z,12Z)-octadeca-9,12-dien-1-yl (2S,4R)-4-(4-(dimethylamino)butanamido)-1-((9Z,12Z)-octadeca-9,12-dienoyl)pyrrolidine-2-carboxylate]	–	>50	–	–	–
CCCCC/C=C\C/C=C\CCCCCCCC(=O)OCCN(CCCCN(C)C)C(=O)CCCCCCC/C=C\C/C=C\CCCCC [Compound F6, 2-((9Z,12Z)—N-(4-(dimethylamino)butyl)octadeca-9,12-dienamido)ethyl (9Z,12Z)-octadeca-9,12-dienoate]	–	–	9.3	–	–
CCCCC/C=C\C/C=C\CCCCCCCCOC(=O)[C@H](CNC(=O)CN(C)C)NC(=O)CCCCCCC/C=C\C/C=C\CCCCC [Compound C25, (9Z,12Z)-octadeca-9,12-dien-1-yl (S)-3-(2-(dimethylamino)acetamido)-2-((9Z,12Z)-octadeca-9,12-dienamido)propanoate]	–	>50	–	–	–
CCCC/C=C\C/C=C\CCCCCCCCOC(=O)CC(CC(=O)OCCCCCCCC/C=C\C/C=C\CCCCC)NC(=O)C[N+](C)(C)C (centres unmarked) [Compound C2, 2-((1-(((9Z,12Z)-heptadeca-9,12-dien-1-yl)oxy)-5-(((9Z,12Z)-octadeca-9,12-dien-1-yl)oxy)-1,5-dioxopentan-3-yl)amino)-N,N,N-trimethyl-2-oxoethan-1-aminium]	33	–	–	95	111
CCCCC/C=C\C/C=C\CCCCCCCCOC(=O)[C@@H]1C[C@@H](NC(=O)CCC[N+](C)(C)C)CN1C(=O)CCCCCCC/C=C\C/C=C\CCCCC [Compound E39, N,N,N-trimethyl-4-(((3R,5S)-5-((((9Z,12Z)-octadeca-9,12-dien-1-yl)oxy)carbonyl)-1-((9Z,12Z)-octadeca-9,12-dienoyl)pyrrolidin-3-yl)amino)-4-oxobutan-1-aminium]	–	>50	–	–	–
CCCCC/C=C\C/C=C\CCCCCCCC(=O)OCCN(CCOC(=O)CCCCCCC/C=C\C/C=C\CCCCC)C(=O)CN1CCN(CCO)CC1 [Compound AB, ((2-(4-(2-hydroxyethyl)piperazin-1-yl)acetyl)azanediyl)bis(ethane-2,1-diyl) (9Z,9′Z,12Z,12′Z)-bis(octadeca-9,12-dienoate)]	7.4	>50	6.9	–	–
CCCCC/C=C\C/C=C\CCCCCCCC(=O)OCCN(CCOC(=O)CCCCCCC/C=C\C/C=C\CCCCC)C(=O)CN1CCN(CCCO)CC1 [Compound AA]	22	–	7.4	90	120
CCCCCCCCCCCCCC(=O)OCCN(CCOC(=O)CCCCCCCCCCCCC)C(=O)CCCC(=O)O [Compound B8]	–	>50	4.3	–	–
CCCCC/C=C\C/C=C\CCCCCCCCOC(=O)[C@@H]1C[C@@H](NC(=O)CCN(C)C)CN1C(=O)CCCCCCC/C=C\C/C=C\CCCCC [Compound E37, (9Z,12Z)-octadeca-9,12-dien-1-yl (2S,4R)-4-(3-(dimethylamino)propanamido)-1-((9Z,12Z)-octadeca-9,12-dienoyl)pyrrolidine-2-carboxylate]	–	–	9.2	–	–
CCCCCCCCCCCCCC(=O)OCCN(CCOC(=O)CCCCCCCCCCCCC)C(=O)CN1CC(CO)C1 [Compound A9, ((2-(3-(hydroxymethyl)azetidin-1-yl)acetyl)azanediyl)bis(ethane-2,1-diyl) ditetradecanoate]	31	–	7.4	95	97
